Test results published in publication PMC9367663 (Journal of Enzyme Inhibition and Medicinal Chemistry, 2022).
Entries after “also recorded” stand apart in the source; their conditions may differ. Read-outs that look alike come from different tables or passages of the source.

How the values were obtained:
[1] = system: human lung tissue (HLT) cells
SARS-CoV-2 PL^Pro = SARS-CoV-2 PL^Pro (Severe acute respiratory syndrome coronavirus 2, UniProt P0DTD1); test: biochemical; assay type: biochemical
[2] = UV–vis stability in biologically relevant media; assay type: physicochemical; conditions: 50 mM acetate buffer pH 5.5 (1% DMSO for a and 1a), 0 and 30 min
Experimental: The same buffers as for enzymatic assays were used for UV–vis stability testing (50 mM acetate buffer, pH = 5.5, and 50 mM HEPES buffer, pH = 7.4). Pyrithione a and zinc pyrithione 1a were dissolved in DMSO. Mixtures of a dissolved compound in DMSO (1%) and buffer (99%) were filtered through Minisart® Regenerated Cellulose Syringe Filter (25 mm, 0.2 µm). Ruthenium complex 2a was dissolved directly in buffers. After preparation, the spectra were immediately recorded on UV–vis spectrometer with an additional recording after 30 min.

in vitro = conditions: human
[3] = 1H NMR stability in biologically relevant media; assay type: physicochemical; conditions: buffers in D2O (1% DMSO-d6 for a and 1a), t = 0 and 30 min
Experimental: Acetate and HEPES buffers were prepared in D2O. […] Such solutions were further filtered through Minisart® Regenerated Cellulose Syringe Filter (25 mm, 0.2 µm).

SARS-CoV-2 viral isolate = assay type: cell-based; conditions: 30 µM
cathepsin L = cathepsin L (Homo sapiens, UniProt P07711); test: biochemical; assay type: biochemical
Chain of cathepsin L (P07711 114-333): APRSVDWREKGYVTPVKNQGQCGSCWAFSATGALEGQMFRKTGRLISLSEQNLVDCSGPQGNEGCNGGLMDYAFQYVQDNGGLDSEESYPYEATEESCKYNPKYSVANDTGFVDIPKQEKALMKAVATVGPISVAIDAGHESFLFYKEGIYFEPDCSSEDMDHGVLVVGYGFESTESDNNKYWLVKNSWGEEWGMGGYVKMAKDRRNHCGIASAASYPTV

[4] = 100 µM ligand, averages of three measurements
[5] = pH 5.5, read-out: IC50 cathepsin L

**Q.** With `On1ccccc1=S` [a, 1-hydroxy-2(1H)-pyridinethione] as the molecule, how does the cell survival [1] read?
**A.** The cell survival was 72.91%.

**Q.** And the IC50 (SARS-CoV-2 PL^Pro)?
**A.** The IC50 was greater than 500000 nM.

**Q.** And the “vi/v0 at 100 µM, PLPro (relative reaction rate)” value (SARS-CoV-2 PL^Pro)?
**A.** The value was 0.88.

**Q.** What about the “UV–vis stability in acetate buffer” value [2] of the same molecule?
**A.** The value was “remain stable”.

**Q.** What about the CC50 (in vitro) of the same molecule?
**A.** Its CC50 is greater than 100000 nM.

**Q.** What about the viability (in vitro) of the same molecule?
**A.** The viability was 51.9 to 55.5%.

**Q.** What about the “1H NMR stability in acetate and HEPES buffers” value [3] of the same molecule?
**A.** The value was “no structural changes”.

**Q.** And the “inhibition of SARS-CoV-2 replication” value (SARS-CoV-2 viral isolate)?
**A.** Its value is “no effect; also recorded: did not inhibit”.

**Q.** And the IC50 (cathepsin L)?
**A.** The IC50 was greater than 500000 nM.

**Q.** What about the “vi/v0 at 100 µM, Cathepsin L (relative reaction rate)” value (cathepsin L) of the same molecule?
**A.** Its value is 1.09.

**Q.** For `Cc1cccn(O)c1=S` [b], which “vi/v0 at 100 µM, PLPro (relative reaction rate)” value (SARS-CoV-2 PL^Pro) is on record?
**A.** The value was 0.50.

**Q.** What about the “vi/v0 at 100 µM, Cathepsin L (relative reaction rate)” value (cathepsin L; [4]) of the same molecule?
**A.** Its value is 1.05.

**Q.** Which “vi/v0 at 100 µM, PLPro (relative reaction rate)” value (SARS-CoV-2 PL^Pro; [4]) does the source give for `Cc1ccn(O)c(=S)c1` [c] here?
**A.** The value was 0.60.

**Q.** And the “vi/v0 at 100 µM, Cathepsin L (relative reaction rate)” value (cathepsin L; [4])?
**A.** The value was 1.04.

**Q.** For `Cc1ccc(=S)n(O)c1` [d], which “vi/v0 at 100 µM, PLPro (relative reaction rate)” value (SARS-CoV-2 PL^Pro) is on record?
**A.** The value was 0.77.

**Q.** What about the “vi/v0 at 100 µM, Cathepsin L (relative reaction rate)” value (cathepsin L; [4]) of the same molecule?
**A.** The value was 1.01.

**Q.** For `Cc1cccc(=S)n1O` [e], which “vi/v0 at 100 µM, PLPro (relative reaction rate)” value (SARS-CoV-2 PL^Pro) is on record?
**A.** The value was 0.82.

**Q.** What about the “vi/v0 at 100 µM, Cathepsin L (relative reaction rate)” value (cathepsin L; [4]) of the same molecule?
**A.** The value was 1.15.

**Q.** What does the source list for `On1ccc2ccccc2c1=S` [f, N-hydroxyisoquinoline-1-thione]?
**A.** vi/v0 at 100 µM, PLPro (relative reaction rate) (SARS-CoV-2 PL^Pro; [4]): 0.66; vi/v0 at 100 µM, Cathepsin L (relative reaction rate) (cathepsin L; [4]): 0.65

**Q.** For `On1c(=S)ccc2ccccc21` [g], which “vi/v0 at 100 µM, PLPro (relative reaction rate)” value (SARS-CoV-2 PL^Pro; [4]) is on record?
**A.** Its value is 0.28.

**Q.** What about the “vi/v0 at 100 µM, Cathepsin L (relative reaction rate)” value (cathepsin L; [4]) of the same molecule?
**A.** The value was 0.53.

**Q.** What does the source list for `COc1cccn(O)c1=S` [h]?
**A.** vi/v0 at 100 µM, PLPro (relative reaction rate) (SARS-CoV-2 PL^Pro; [4]): 0.60; vi/v0 at 100 µM, Cathepsin L (relative reaction rate) (cathepsin L; [4]): 1.17

**Q.** With Zn-(4Me-pth) complex [1c] as the molecule, how does the IC50 (SARS-CoV-2 PL^Pro; pH 7.4, read-out: IC50 PL^Pro) read?
**A.** The IC50 was 540 ± 250 nM.

**Q.** And the IC50 (cathepsin L; [5])?
**A.** The IC50 was 410 ± 80 nM.

**Q.** Which results are given for Zn-(5Me-pth) complex [1d]?
**A.** IC50 (SARS-CoV-2 PL^Pro; pH 7.4, read-out: IC50 PL^Pro): 220 ± 80 nM; IC50 (cathepsin L; [5]): 440 ± 120 nM

**Q.** Which results are given for Zn-(6Me-pth) complex [1e]?
**A.** IC50 (SARS-CoV-2 PL^Pro; pH 7.4, read-out: IC50 PL^Pro): 260 ± 180 nM; IC50 (cathepsin L; [5]): 240 ± 50 nM

**Q.** With “Zn-(N-hydroxyisoquinoline-1-thione) complex [1f]” as the molecule, how does the “extent of PL^Pro inhibition (in words)” value (SARS-CoV-2 PL^Pro) read?
**A.** The value was “cannot fully inhibit the enzyme”.

**Q.** And the IC50 (cathepsin L; 50 mM acetate buffer pH 5.5, 2 µM Z-LR-AMC, 5 µM DTT, 25 °C, mean ± S.E.M. (N = 3), read-out: IC50 cathepsin L)?
**A.** The IC50 was 140 ± 50 nM.
